According to patent US4015974A, “Amido phosphorothiolates” (priority 1972, dated 1977):

Legend:
Assay type in all cases: in vivo
radish = assay: Pre-emergence application, herbicidal effect on radish (Table 1); set-up: key: 0: not damaged; 5: completely killed; settings: 20 days after application, score 0-5
Method in brief: (§1)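 Steps: sow seeds individually in pots about 10 cm across; cover with soil; apply test compound as water-diluted wettable powder to the soil; grow in greenhouse; rate herbicidal effect at day 20 on a 0–5 scale (5 = completely killed).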

[1] = test system: large crabgrass (Digitaria sanguinalis); assay: Pre-emergence application, herbicidal effect on large crabgrass (Table 1); set-up: key: 0: not damaged; 5: completely killed; settings: 20 days after application, score 0-5
Method in brief: as §1

[2] = test system: barnyard grass (Echinochloa crus-galli); assay: Water application, herbicidal effect on barnyard grass (Table 2); set-up: key: 0: not damaged; 5: completely killed; settings: 25 days, score 0-5
Method in brief: (§2)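 Flooded paddy soil, 3-leaf rice transplants, sown barnyard grass, spontaneous broadleaf weeds; WP formulation, water-lodged soil application; 0–5 visual rating, day 25.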

[3] = test system: broad-leaved weeds, e.g., monochoria, false pimpernel and toothcup; assay: Water application, herbicidal effect on broad-leaved weeds (Table 2); set-up: key: 0: not damaged; 5: completely killed; settings: 25 days, score 0-5
Method in brief: as §2

[4] = test system: barnyard grass (Echinochloa crus-galli); assay: Pre-emergence application, herbicidal effect on barnyard grass (Table 1); set-up: key: 0: not damaged; 5: completely killed; settings: 20 days after application, score 0-5
Method in brief: as §1

[5] = test system: common purslane (Portulaca oleracea); assay: Pre-emergence application, herbicidal effect on common purslane (Table 1); set-up: key: 0: not damaged; 5: completely killed; settings: 20 days after application, score 0-5
Method in brief: as §1

[6] = test system: redroot pigweed (Amaranthus retroflexus); assay: Pre-emergence application, herbicidal effect on redroot pigweed (Table 1); set-up: key: 0: not damaged; 5: completely killed; settings: 20 days after application, score 0-5
Method in brief: as §1

rice = assay: Water application, phytotoxicity on rice (Table 2); set-up: key: 0: no effect; 1: very slightly affected; 2: slightly affected; 3: moderately affected; 4: considerably affected; 5: completely killed; settings: 25 days, score 0-5
Method in brief: as §2

[7] = test system: common lambsquarter (Chenopodium album); assay: Pre-emergence application, herbicidal effect on common lambsquarter (Table 1); set-up: key: 0: not damaged; 5: completely killed; settings: 20 days after application, score 0-5
Method in brief: as §1

Row | Structure (SMILES) | Herbicidal effect, radish (radish; 10 g./a.) | Herbicidal effect, radish (radish; 20 g./a.) | Herbicidal effect, radish (radish; 40 g./a.) | Herbicidal effect, large crabgrass ([1]; 10 g./a.) | Herbicidal effect, large crabgrass ([1]; 20 g./a.) | Herbicidal effect, large crabgrass ([1]; 40 g./a.) | Herbicidal effects, barnyard grass ([2]; 10 g/a) | Herbicidal effects, barnyard grass ([2]; 20 g/a) | Herbicidal effects, barnyard grass ([2]; 40 g/a) | Herbicidal effects, broad-leaved weeds ([3]; 10 g/a) | Herbicidal effects, broad-leaved weeds ([3]; 20 g/a) | Herbicidal effects, broad-leaved weeds ([3]; 40 g/a) | Herbicidal effect, barnyard grass ([4]; 10 g./a.) | Herbicidal effect, barnyard grass ([4]; 20 g./a.) | Herbicidal effect, barnyard grass ([4]; 40 g./a.) | Herbicidal effect, common purslane ([5]; 10 g./a.) | Herbicidal effect, common purslane ([5]; 20 g./a.) | Herbicidal effect, common purslane ([5]; 40 g./a.) | Herbicidal effect, redroot pigweed ([6]; 10 g./a.) | Herbicidal effect, redroot pigweed ([6]; 20 g./a.) | further results
1 | CCCCCSP(=O)(OCC)SCC(=O)N1CCCC(C)C1 (stereo not drawn) [Compound 72] | 0 | 0 | 0 | 5 | 5 | 5 | 5 | 5 | 5 | 5 | 5 | 5 | 4 | 5 | 5 | 3 | 4 | 5 | 3 | 4 | Herbicidal effect, redroot pigweed ([6]; 40 g./a.): 5; Phytotoxicity on rice (rice; 10 g/a): 0; Phytotoxicity on rice (rice; 20 g/a): 0; Phytotoxicity on rice (rice; 40 g/a): 0; Herbicidal effect, common lambsquarter ([7]; 10 g./a.): 4; Herbicidal effect, common lambsquarter ([7]; 20 g./a.): 4; Herbicidal effect, common lambsquarter ([7]; 40 g./a.): 5
2 | CCOP(=O)(SCCC(C)C)SCC(=O)N1CCCC(C)C1 (stereo not drawn) [Compound 73] | 0 | 0 | 0 | 5 | 5 | 5 | 5 | 5 | 5 | 5 | 5 | 5 | 5 | 5 | 5 | 4 | 4 | 5 | 4 | 4 | Herbicidal effect, redroot pigweed ([6]; 40 g./a.): 5; Phytotoxicity on rice (rice; 10 g/a): 0; Phytotoxicity on rice (rice; 20 g/a): 0; Phytotoxicity on rice (rice; 40 g/a): 0; Herbicidal effect, common lambsquarter ([7]; 10 g./a.): 4; Herbicidal effect, common lambsquarter ([7]; 20 g./a.): 4; Herbicidal effect, common lambsquarter ([7]; 40 g./a.): 5
3 | CCOP(=O)(SC)SCC(=O)N1CCCCC1CC (stereo not drawn) [Compound 74] | 0 | 1 | 2 | 5 | 5 | 5 | 5 | 5 | 5 | 5 | 5 | 5 | 5 | 5 | 5 | 5 | 5 | 5 | 5 | 5 | Herbicidal effect, redroot pigweed ([6]; 40 g./a.): 5; Phytotoxicity on rice (rice; 10 g/a): 0; Phytotoxicity on rice (rice; 20 g/a): 0; Phytotoxicity on rice (rice; 40 g/a): 0; Herbicidal effect, common lambsquarter ([7]; 10 g./a.): 5; Herbicidal effect, common lambsquarter ([7]; 20 g./a.): 5; Herbicidal effect, common lambsquarter ([7]; 40 g./a.): 5
4 | CCOP(=O)(SCC)SCC(=O)N1CCCCC1CC (stereo not drawn) [Compound 75] | 0 | 1 | 2 | 5 | 5 | 5 | 5 | 5 | 5 | 5 | 5 | 5 | 5 | 5 | 5 | 5 | 5 | 5 | 5 | 5 | Herbicidal effect, redroot pigweed ([6]; 40 g./a.): 5; Phytotoxicity on rice (rice; 10 g/a): 0; Phytotoxicity on rice (rice; 20 g/a): 0; Phytotoxicity on rice (rice; 40 g/a): 1; Herbicidal effect, common lambsquarter ([7]; 10 g./a.): 5; Herbicidal effect, common lambsquarter ([7]; 20 g./a.): 5; Herbicidal effect, common lambsquarter ([7]; 40 g./a.): 5
5 | CCOP(=O)(SCC(=O)N1CCCCC1CC)SC(C)C (stereo not drawn) [Compound 76] | 0 | 1 | 2 | 5 | 5 | 5 | 5 | 5 | 5 | 5 | 5 | 5 | 5 | 5 | 5 | 5 | 5 | 5 | 5 | 5 | Herbicidal effect, redroot pigweed ([6]; 40 g./a.): 5; Phytotoxicity on rice (rice; 10 g/a): 0; Phytotoxicity on rice (rice; 20 g/a): 0; Phytotoxicity on rice (rice; 40 g/a): 0; Herbicidal effect, common lambsquarter ([7]; 10 g./a.): 5; Herbicidal effect, common lambsquarter ([7]; 20 g./a.): 5; Herbicidal effect, common lambsquarter ([7]; 40 g./a.): 5
